The source made the active and inactive calls. No rule for the calls is given here.
Molecular target: Peptidyl-prolyl cis-trans isomerase FKBP1A (Homo sapiens) (UniProt P62942)
Assay: small-molecule binding to FKBP12 – biophysical, NMR detection (AID 608)
Settings: purified FKBP12

Peptidyl-prolyl cis-trans isomerase FKBP1A (Homo sapiens), sequence (P62942 whole entry, looked up): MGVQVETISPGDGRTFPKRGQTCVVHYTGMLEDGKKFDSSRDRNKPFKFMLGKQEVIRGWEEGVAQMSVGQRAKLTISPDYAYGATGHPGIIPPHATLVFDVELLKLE

| SMILES | Kd |
| --- | --- |
| O=C(O)c1cc(=O)[nH]c2ccccc12 | > 4 mM (inactive) |
| Cc1ccccc1-n1c(N)cc(=O)[nH]c1=S | > 4 mM (inactive) |
| COc1ccc2c(c1)OC1(O)COc3cc(OC)c(OC)cc3C1=C2 (stereo unspecified) | > 4 mM (inactive) |
| O=C(COc1cccc(Cl)c1)N1CCOCC1 | inactive |
| CC(=O)O[C@H]1C(=O)[C@@]2(C)C([C@H](OC(=O)c3ccccc3)[C@]3(O)C[C@H](OC(=O)[C@H](O)[C@@H](NC(=O)c4ccccc4)c4ccccc4)C(C)=C1C3(C)C)[C@]1(OC(C)=O)CO[C@@H]1C[C@@H]2O (stereo partly specified) | > 4 mM (inactive) |
| O=c1[nH]cc(Nc2ccccc2)c(=O)[nH]1 | > 4 mM (inactive) |
| COc1cccc(-c2nc(-c3ccccn3)no2)c1OC | > 4 mM (inactive) |
| O=c1cnnc(Nc2ccc(O)cc2)[nH]1 | > 4 mM (inactive) |
| CCCCCCCCCCCC1=C(O)C(=O)C=C(O)C1=O | > 4 mM (inactive) |
| CC(C)=CCOc1cc2oc(=O)ccc2cc1O | > 4 mM (inactive) |
| Cc1cc(C)n(-c2ccc(Cl)nn2)n1 | > 4 mM (inactive) |
| O=C1NC(=O)C(C2SC(=O)NC2=O)S1 (stereo unspecified) | > 4 mM (inactive) |
| COc1c(-c2ccccc2)oc2c(OC)cccc2c1=O | > 4 mM (inactive) |
| Nc1ccccc1OC(F)(F)F | > 4 mM (inactive) |
| O=S(=O)(CCN1CCCC1)c1ccccc1 | > 4 mM (inactive) |
| Cc1nc(N2CCOCC2)[nH]c(=O)c1C | > 4 mM (inactive) |
| CN1CCN(c2ncnc3nc[nH]c23)CC1 | > 4 mM (inactive) |
| COC(=O)N1CCN(c2ccc(OC)cc2)CC1 | > 4 mM (inactive) |
| NCC(N)C(=O)c1ccccc1 (stereo unspecified) | > 4 mM (inactive) |
| CC(=O)O[C@@H]1CC2C(C)(C)C(=O)[C@@H]3O[C@@H]3[C@]2(C)C2CC[C@]3(C)C(=CC(=O)O[C@H]3c3ccoc3)[C@@]21C (stereo partly specified) | > 4 mM (inactive) |
| CSc1nc2[nH]ncc2c(=O)[nH]1 | > 4 mM (inactive) |
| COc1c(-c2coc3cc4c(cc3c2=O)CC(OC(C)=O)C(C)(C)O4)ccc2c1C=CC(C)(C)O2 (stereo unspecified) | > 4 mM (inactive) |
| CNc1nc(N)c(C(=O)C(C)(C)C)s1 | > 4 mM (inactive) |
| Cc1nc2nc(COc3ccccc3)nn2c(C)c1Cl | > 4 mM (inactive) |

| SMILES | Kd |
| --- | --- |
| CC(=O)Oc1ccc2c(c1)c(C(C)=O)c(C)n2C | > 4 mM (inactive) |
| COc1c2c(cc3occ(-c4ccc5c(c4)OCO5)c(=O)c13)OC(C)(C)C=C2 | > 4 mM (inactive) |
| COC(=O)C1COCCN1C(=O)C(F)(F)Sc1ccc(C(C)C)cc1 (stereo unspecified) | 0.19 mM |
| COc1cc2nc(-c3cccs3)oc(=O)c2cc1OC | > 4 mM (inactive) |
| NC(=O)c1ccc(N=Cc2ccc[nH]2)cc1 | > 4 mM (inactive) |
| Cc1cc(C)n(/N=C\c2cccs2)c(=O)c1C(N)=O | > 4 mM (inactive) |
| CC(C)(C)CC(=O)NNC(=O)c1cnccn1 | > 4 mM (inactive) |
| CCc1cccc(C)c1NC(=O)c1cc(C)oc1C | > 4 mM (inactive) |
| CC(=O)O[C@@H]1CC2C(C)(C)CCC(=O)[C@]2(C)C2CC[C@@]3(C)[C@H](c4ccoc4)OC(=O)C4OC43[C@@]21C (stereo partly specified) | > 4 mM (inactive) |
| CC1(C)CN=C(Nc2nc3ccccc3s2)S1 | > 4 mM (inactive) |
| OCC1CCCN2CCCCC12 (stereo unspecified) | > 4 mM (inactive) |
| NCc1cc2ccccc2s1 | > 4 mM (inactive) |
| Nc1nnc(SCc2ccc(F)cc2)s1 | > 4 mM (inactive) |
| CN(C)c1ccc(C2CC(=O)CC(=O)C2)cc1 | > 4 mM (inactive) |
| O=C(O)c1cnn2ccccc12 | > 4 mM (inactive) |
| CC(=O)c1ccc(N2C(=O)C(C(C)C)NC2=S)cc1 (stereo unspecified) | > 4 mM (inactive) |
| COCCn1c(SC)nc2c1c(=O)[nH]c(=O)n2C | > 4 mM (inactive) |
| Cn1c(SCC(=O)NCCO)nc2ccccc2c1=O | > 4 mM (inactive) |
| O=C(Nc1ccc(O)cc1)N1CCOCC1 | > 4 mM (inactive) |
| Cc1cc(=O)n2[nH]c(COc3ccccc3)nc2n1 | > 4 mM (inactive) |
| O=C(O)CCCC(=O)Nc1nccs1 | > 4 mM (inactive) |
| Cn1nc(C(=O)NCc2cccnc2)c2ccccc2c1=O | > 4 mM (inactive) |
| COCc1cc(=O)oc2cc(O)c(Cl)cc12 | > 4 mM (inactive) |
| COc1cc2c(cc1OC)-c1cc3ccc(OC)c(OC)c3c[n+]1CC2 | > 4 mM (inactive) |

| SMILES | Kd |
| --- | --- |
| Cc1ccc2cc(CO)ccc2n1 | > 4 mM (inactive) |
| O=C1CCC(=O)N1c1ccc(O)cc1 | > 4 mM (inactive) |
| CCc1c(C)[nH]c(=S)c(C(N)=O)c1C | > 4 mM (inactive) |
| CNC(=O)COc1cccc2c1CCNC2=O | > 4 mM (inactive) |
| C=C1C(=O)O[C@@H]2C3OC3(C)CC/C=C(\C)CC[C@@H]12 (stereo partly specified) | > 4 mM (inactive) |
| CC12CN(CC#N)CC(C)(CN(CC#N)C1)C2=O | > 4 mM (inactive) |
| CC(C)(C)NC(=O)N1CCC(C(N)=O)CC1 | > 4 mM (inactive) |
| CNC(=O)c1cccc(NC(=S)NC)c1 | > 4 mM (inactive) |
| NC(=O)c1ccc(N2CCCCC2)c(N)c1 | > 4 mM (inactive) |
| CC(=O)Nc1ccn(-c2ccccc2)n1 | > 4 mM (inactive) |
| CNS(=O)(=O)c1ccc2[nH]c(=O)[nH]c2c1 | > 4 mM (inactive) |
| CC1CCN(C(=O)c2ccc3c(c2)OCCO3)CC1 | > 4 mM (inactive) |
| Cc1ccc(SCC(=O)N2CC(C)OC(C)C2)cc1 (stereo unspecified) | inactive |
| O=C(Nc1ccc(N2CCOCC2)cc1)C1CC1 | > 4 mM (inactive) |
| Cc1cc(C(=O)N2CCN(S(C)(=O)=O)CC2)cs1 | > 4 mM (inactive) |
| CNc1ccccc1C(=O)O | > 4 mM (inactive) |
| Nc1nc(=S)n2c(n1)oc1ccccc12 | > 4 mM (inactive) |
| CC(=O)OC[C@@]1(O)C[C@@]23CCC4c5ccoc5CC[C@]4(C)C2CC[C@@H]1C3 (stereo partly specified) | > 4 mM (inactive) |
| O=C1CSC(=Nc2ccccc2)N1 | > 4 mM (inactive) |
| CC(=O)c1cccc(NC2=NCC(C)(C)S2)c1 | > 4 mM (inactive) |
| O=c1oc2c(O)c(O)cc3c(=O)oc4c(O)c(O)cc1c4c23 | > 4 mM (inactive) |
| CC(C(N)=O)N1C(=O)c2ccccc2C1=O (stereo unspecified) | > 4 mM (inactive) |
| CC(=O)c1ccc(CC2SC(N)=NC2=O)cc1 (stereo unspecified) | > 4 mM (inactive) |
| CC(=O)NCC1(c2ccccc2)CCOCC1 | > 4 mM (inactive) |

| SMILES | Kd |
| --- | --- |
| COC(=O)c1ccc2nccnc2c1 | > 4 mM (inactive) |
| Cn1nc(C(=O)NC2CCCCC2)c2ccccc2c1=O | > 4 mM (inactive) |
| O=C(Cn1c(-c2cscn2)nc2ccccc21)Nc1ccccc1F | > 13.6 mM (inactive) |
| N#Cc1sc2nc3c(c(-c4cccnc4)c2c1N)CCC3 | > 4 mM (inactive) |
| COc1ccc2c(Cl)c(C(=O)N3CCOCC3)sc2c1Cl | inactive |
| O=C(O)c1ccc(-n2cccc2)cc1 | > 4 mM (inactive) |
| O=C1C2C3C=CC(C3)C2C(=O)N1c1nccs1 (stereo unspecified) | > 4 mM (inactive) |
| O=c1c(O)cc([C@H]2Oc3cc(O)cc(O)c3C[C@H]2O)cc2c([C@H]3Oc4cc(O)cc(O)c4C[C@H]3O)cc(O)c(O)c12 | > 4 mM (inactive) |
| CN(C)C(=O)c1ccc(-c2n[nH]c(=O)c3ccccc23)cc1 | > 4 mM (inactive) |
| O=C(NC1=NCCS1)c1ccc(Cl)s1 | > 4 mM (inactive) |
| NC(=O)C1(c2ccccc2)CCOCC1 | > 4 mM (inactive) |
| O=C(Nc1ccc2c(c1)CCC2)c1cnccn1 | > 4 mM (inactive) |
| Cn1nnc2cc(C(=O)O)ccc21 | > 4 mM (inactive) |
| OCC1=Cc2ccccc2OC1 | > 4 mM (inactive) |
| COc1cc(C(=O)NCC2CCCO2)cc(OC)c1OC (stereo unspecified) | > 4 mM (inactive) |
| Cc1cc(C(=O)O)n[nH]1 | > 4 mM (inactive) |
| O=S1(=O)CCC(NCc2ccccc2)C1 (stereo unspecified) | > 4 mM (inactive) |
| O=C1CC(=O)N(c2ccccc2)C(=O)N1 | > 4 mM (inactive) |
| Cc1ccc(S(=O)(=O)CC(=O)N2CCCC2)cc1 | > 4 mM (inactive) |
| CN(C)CCCN1CNC(=S)NC1 | > 4 mM (inactive) |
| NC(=O)c1ccc(NC(=O)c2ccco2)cc1 | > 4 mM (inactive) |
| CC(C)C1COc2cc3oc(=O)ccc3cc2O1 (stereo unspecified) | > 4 mM (inactive) |
| COCc1nc(-c2cc(Br)ccc2OC)no1 | > 4 mM (inactive) |
| Clc1ccc(-c2nnc3ccccn23)cc1 | > 4 mM (inactive) |

| SMILES | Kd |
| --- | --- |
| COc1ccc(C)cc1S(N)(=O)=O | > 4 mM (inactive) |
| C[C@@H]1CC[C@@]23CCC4(C)[C@@](C=CC5[C@@]6(C)CCC(=O)C(C)(C)C6CC[C@]54C)(OC2=O)C3[C@H]1C (stereo partly specified) | > 4 mM (inactive) |
| CC(C)CCCC(C)[C@H]1CCC2C3CC=C4C[C@@H](O)CC[C@]4(C)C3CC[C@@]21C (stereo partly specified) | > 4 mM (inactive) |
| COc1ccc(C(C)=O)c(OC)c1 | > 4 mM (inactive) |
| N#Cc1cccc(Cn2nnc(-c3ccccc3)n2)c1 | > 4 mM (inactive) |
| CCn1nnnc1Oc1ccc(Cl)cc1 | > 4 mM (inactive) |
| O=C(O)C1(O)C[C@@H](O)C(O)[C@H](O)C1 (stereo partly specified) | > 4 mM (inactive) |
| COc1cc(O)cc(/C=C/c2ccccc2)c1 | > 4 mM (inactive) |
| COc1ccc(NC(=O)CCCC(=O)O)c(OC)c1 | > 4 mM (inactive) |
| CSc1ncnc2nc[nH]c12 | > 4 mM (inactive) |
| CC1(C)C(=O)CC[C@@]2(C)C1C[C@@H](O)[C@@]1(C)C3=CC(=O)O[C@@H](c4ccoc4)[C@]3(C)CCC21 (stereo partly specified) | > 4 mM (inactive) |
| Nc1c(C(=O)O)sc2ncccc12 | > 4 mM (inactive) |
| COc1ccc2c(c1)O[C@H]1c3ccc(OC)cc3OC[C@@H]21 | > 4 mM (inactive) |
| OC[C@H]1O[C@@H](O[C@H]2[C@H](O)[C@@H](O)[C@@H](O)O[C@@H]2CO)[C@H](O)[C@@H](O)[C@@H]1O | > 4 mM (inactive) |
| O=C(O)CCc1c[nH]c2ccccc12 | > 4 mM (inactive) |
| CC(=O)NC(=S)Nc1ccccc1C | > 4 mM (inactive) |
| COCC(=O)OCn1nnc2ccccc2c1=O | > 4 mM (inactive) |
| O=C(c1cc2ccccc2o1)N1CCCCCC1 | 0.184 mM |
| C=C1C2CC[C@@]3(C)[C@H](c4ccoc4)OC(=O)C[C@]13O[C@H]1CC(=O)C(C)(C)[C@H](C(O)C(=O)OC)[C@@]21C (stereo partly specified) | > 4 mM (inactive) |
| Cc1onc(-c2ccccc2)c1CN | > 4 mM (inactive) |

Source: PubChem BioAssay AID608 (Sanford-Burnham Center for Chemical Genomics, 2007)
